Patent US20240043860A1, “NOVEL HYDROXYPHENYLPYRUVATE DIOXYGENASE POLYPEPTIDES AND METHODS OF USE THEREOF” (Syngenta Crop Protection AG, priority 2020, published 2024)
“And” between values parts separate entries of the source, which are not always exact repeats. Equal values may be shown once.

Columns and labels:
[1] = target: HPPD variant AVESA V209 (SEQ ID NO: 17) (Avena sativa, UniProt A0ACD5V6K6, A327R/I340E/L359M/R214G/V218I/V260A); experiment: biochemical; assay type: biochemical
Method: (§1) 25 ul of the overnight cultures were inoculated into fresh 96-deepwell block containing 1 ml Formedium Autoinduction Media (AIM). The AIM cultures were grown for 3h at 37° C. (900rpm) and then transferred to 20° C. overnight (900rpm) to allow protein expression. The overnight cultures were centrifuged and 500 ul of Cellytic B (Sigma Aldrich) was added to resuspend the cell pellets. The coupled HGO assay (Siehl et al, 2014) is used to generate IC50 values for the HPPD variants of interest.
(§2) E. coli BL21 (DE3) cells were transformed with a pET24a vector containing a C-terminally his-tagged Arabidopsis HGO gene, grown and induced overnight as described for the HPPD variants above. The cell pellet was resuspended in phosphate buffered saline at pH 7.4 containing 10% Glycerol, 1mm Tris[2-carboxyethyl] phosphine-HCl (TCEP) plus 30 mM Imidazole and lysed using lysozyme/benzonase. The extract was clarified by low speed centrifugation and purified in the same buffer down a 1 ml His Gravitrap column. The bound HGO was eluted in 0.25M imidazole and the fractions pooled and beaded into liquid nitrogen. All procedures apart from the centrifugation and beading steps were carried out under a nitrogen atmosphere.
(§3) The coupled HGO assay is carried out by adding 10 ul of HPPD extract to a 96-well plate and then adding 40 ul of reaction buffer (50 mM Bis Tris Propane, pH7.0, 25 mM sodium-L-ascorbate, 400μM mercaptoethanol, 50 μM Fe(II)SO4). The plates are left to incubate for 5 minutes on ice. […] 200 ul of HPP/HGO (197 μM hydroxyphenylpyruvic acid, 16 μl/ml Homogentisic Acid Oxidase in reaction buffer as described above) buffer is then added to the well and the reaction is regularly monitored (e.g. every 30 seconds-5 minutes) for absorbance at 330 nm for a given time period (e.g., for between 15-60 minutes). The data can then be used to calculate the IC50 value for each HPPD variant of interest.

[2] = test system: HPPD variant AVESA V209 (SEQ ID NO: 17); experiment: biochemical; assay type: biochemical, Avena sativa; settings: SEQ ID NO: 17 compared to control SEQ ID NO: 122
Method: as §1, §2, §3

[3] = target: HPPD variant AVESA V200 (SEQ ID NO: 5) (Avena sativa, UniProt A0ACD5V6K6, A327R/I340E/L359M/V218I/V260A); experiment: biochemical
HPPD variant AVESA V200 (SEQ ID NO: 5), sequence (A0ACD5V6K6 entry or part of it V218I/V260A/A327R/I340E/L359M): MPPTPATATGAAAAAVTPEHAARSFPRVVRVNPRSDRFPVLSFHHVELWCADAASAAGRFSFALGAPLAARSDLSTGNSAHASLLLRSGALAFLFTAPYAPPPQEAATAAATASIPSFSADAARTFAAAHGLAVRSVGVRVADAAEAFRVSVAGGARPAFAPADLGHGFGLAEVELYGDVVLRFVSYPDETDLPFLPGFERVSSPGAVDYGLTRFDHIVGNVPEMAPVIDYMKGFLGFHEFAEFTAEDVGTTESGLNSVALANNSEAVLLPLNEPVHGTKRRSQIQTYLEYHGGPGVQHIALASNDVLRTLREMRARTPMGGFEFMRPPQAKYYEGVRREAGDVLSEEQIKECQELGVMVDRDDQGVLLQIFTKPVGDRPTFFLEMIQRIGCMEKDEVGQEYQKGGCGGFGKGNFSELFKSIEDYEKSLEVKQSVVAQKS
Method: as §1
E. coli BL21 (DE3) cells were transformed with a pET24a vector containing a C-terminally his-tagged Arabidopsis HGO gene, grown and induced overnight as described for the HPPD variants above. […]
as §3, with “Fe(II)SO4).” for “Fe(II)SO4). The plates are left to incubate for 5 minutes on ice.”, “The data can then be used to calculate the IC50 value for each HPPD variant of interest.” left out

[4] = test system: HPPD variant AVESA V208 (SEQ ID NO: 14); experiment: biochemical; assay type: biochemical, Avena sativa; settings: SEQ ID NO: 14 compared to control SEQ ID NO: 122
Method: as §1, §2, §3

[5] = test system: transgenic tobacco plants expressing mutant HPPD SEQ ID NO: 125; experiment: spray test, herbicidal damage scoring; assay type: in vivo; settings: Table 4.3, 7 days after treatment, 100=complete death, 0=no damage, one value per event
Method: (§4) DNA sequences that encode these polypeptides (optimized for tobacco or, optionally, codon optimized according to a target crop such as soybean) were prepared synthetically. Each sequence was designed to include a 5′ fusion with TMV omega 5′ leader sequence such that they are flanked at the 5′ end with XhoI and at the 3′ end with KpnI to facilitate direct cloning into a suitable binary vector for Agrobacterium-based plant transformation.
(§5) For example, a master plate of Agrobacterium tumefaciens containing the HPPD expressing the binary vector is used to inoculate 10 ml LB (L broth) containing 100 mg/l Rifampicin plus 50 mg/l Kanamycin using a single bacterial colony. This is incubated overnight at 28° C. shaking at 200 rpm. This entire overnight culture is used to inoculate a 50 ml volume of LB containing the same antibiotics. Again this is cultured overnight at 28° C. shaking at 200 rpm. The Agrobacterium cells are pelleted by centrifuging at 3000 rpm for 15 minutes and then resuspended in MS (Murashige and Skoog) medium containing 30 g/l sucrose, pH 5.9 to an OD […]=0.6. This suspension is dispensed in 25 ml aliquots into petri dishes.
(§6) Once rooted, plantlets are transferred from agar and potted into 50% peat, 50% John Innes Soil No. 3 or, for example, MetroMix® 380 soil (Sun Gro Horticulture, Bellevue, WA) with slow-release fertilizer in 3 inch round or 4 inch square pots and left regularly watered to establish for 8-12d in the glass house. Glass house conditions are about 24-27° C. day; 18-21° C. night and approximately a 14h (or longer in UK summer) photoperiod.
(§7) About 20-30 TO events are produced for a number of HPPD variant genes.
(§8) Single copy events amongst the Ti plant lines are identified by their 3:1 segregation ratio (with respect to kanamycin and/or herbicide) and by quantitative RT-PCR. Seed from the thus selected Ti tobacco (var. Samsun) lines are sown in 3 inch diameter pots containing 50% peat and 50% John Innes Soil No. 3. […] HPPD expression levels were monitored by Western analysis.
(§9) Tables 4.1-4.9 show the herbicidal damage scoring on transgenic tobacco plants 7 days after treatment. A score of 100=complete death and 0=no damage observed.

[6] = test system: transgenic tobacco plants expressing mutant HPPD SEQ ID NO: 124; experiment: spray test, herbicidal damage scoring; assay type: in vivo; settings: Table 4.2, 7 days after treatment, 100=complete death, 0=no damage, one value per event
Method: as §4, §5, §6, §7, §8, §9

HPPD variant AVESA V209 (SEQ ID NO: 17) (Avena sativa, UniProt A0ACD5V6K6, A327R/I340E/L359M/R214G/V218I/V260A), sequence (A0ACD5V6K6 entry or part of it R214G/V218I/V260A/A327R/I340E/L359M): as the sequence (A0ACD5V6K6 entry or part of it V218I/V260A/A327R/I340E/L359M) above, with R214G counted along it

Question: How did the IC50 [1] turn out when `Cn1nnnc1NC(=O)c1ccc(C(F)(F)F)nc1-n1cncn1` [Herbicide D, N-(1-methyltetrazol-5-yl)-2-(1,2,4-triazol-1-yl)-6-(trifluoromethyl)pyridine-3-carboxamide] was run?
Answer: 106 µM

Question: And the “increase of the IC50 value” [2]?
Answer: ~14 fold

Question: What about the IC50 [3] of the same compound?
Answer: 63.2 µM

Question: Which results are given for `COc1ccc(-n2nc(C)cc(C(=O)C3C(=O)CCCC3=O)c2=O)cc1OC` [Herbicide C, dioxopyritrione]?
Answer: increase of the IC50 value [4]: > 200 fold; herbicidal damage scoring, Herbicide C (200 g/ha) [5]: 60 and 80 and 75 and 85; herbicidal damage scoring, Herbicide C (200 g/ha) [6]: 60 and 65 and 50
